Data on twelve compounds can be found in patent US12421210B2, “Fused bicyclic heterocycles as therapeutic agents” (NEW YORK UNIVERSITY, priority 2018, dated 2025).

The target in the assay is human NAMPT enzyme (His-hNAMPT) (Homo sapiens (Human), UniProt P43490). The experiment in a line: NAMPT enzymatic inhibition assay (fluorescence, NADH product). The format is biochemical. The following applies: [HDB]; read-out: NAMPT IC50 (μM) [HDB].
human NAMPT enzyme (His-hNAMPT), sequence (P43490 whole entry): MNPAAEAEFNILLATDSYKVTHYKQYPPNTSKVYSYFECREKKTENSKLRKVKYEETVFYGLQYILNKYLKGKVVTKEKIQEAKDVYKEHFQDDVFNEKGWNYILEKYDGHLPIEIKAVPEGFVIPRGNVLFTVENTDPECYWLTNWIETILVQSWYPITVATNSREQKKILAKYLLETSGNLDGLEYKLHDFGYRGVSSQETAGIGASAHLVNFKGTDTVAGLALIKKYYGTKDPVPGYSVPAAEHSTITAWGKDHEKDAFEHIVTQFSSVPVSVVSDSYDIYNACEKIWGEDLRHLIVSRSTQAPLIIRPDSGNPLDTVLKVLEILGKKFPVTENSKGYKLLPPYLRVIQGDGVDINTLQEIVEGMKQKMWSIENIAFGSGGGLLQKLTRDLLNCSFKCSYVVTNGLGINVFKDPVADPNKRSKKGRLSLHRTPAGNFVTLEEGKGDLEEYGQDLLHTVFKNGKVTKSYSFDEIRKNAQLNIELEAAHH
`O=C(/C=C/c1cccnc1)NCC[C@@H]1[C@H]2CN(c3nc(OCCN4CCOCC4)ncc3F)C[C@@H]12` [Example 331, (E)-N-(2-((1R,5S,6s)-3-(5-fluoro-2-(2-morpholinoethoxy)pyrimidin-4-yl)-3-azabicyclo[3.1.0]hexan-6-yl)ethyl)-3-(pyridin-3-yl)acrylamide]: the half-inhibitory concentration (IC50) is below 0.01 µM.
Next, `COc1ncc(F)c(N2C[C@@H]3[C@@H](CCNC(=O)/C=C/c4cnccc4F)[C@@H]3C2)n1` [Example 332, (E)-N-(2-((1R,5S,6s)-3-(5-fluoro-2-methoxypyrimidin-4-yl)-3-azabicyclo[3.1.0]hexan-6-yl)ethyl)-3-(4-fluoropyridin-3-yl)acrylamide]: below 0.01 µM.
To `O=C(/C=C/c1cccnc1)NCC[C@@H]1[C@H]2CN(c3nc(N4CCNC(=O)C4)ncc3F)C[C@@H]12` [Example 333, (E)-N-(2-((1R,5S,6s)-3-(5-fluoro-2-(3-oxopiperazin-1-yl)pyrimidin-4-yl)-3-azabicyclo[3.1.0]hexan-6-yl)ethyl)-3-(pyridin-3-yl)acrylamide] belongs below 0.01 µM.
In the case of `Cc1nc2cccc(N3C[C@@H]4[C@@H](CCNC(=O)/C=C/c5cccnc5)[C@@H]4C3)c2o1` [Example 334, (E)-N-(2-((1R,5S,6s)-3-(2-methylbenzo[d]oxazol-7-yl)-3-azabicyclo[3.1.0]hexan-6-yl)ethyl)-3-(pyridin-3-yl)acrylamide], the half-maximal inhibitory concentration (IC50) is below 0.01 µM.
To `O=C(/C=C/c1cccnc1)NCC[C@@H]1[C@H]2CN(C(c3ccccc3)C3CCOCC3)C[C@@H]12` (stereo partly drawn) [Example 335, (E)-N-(2-((1R,5S,6s)-3-(phenyl(tetrahydro-2H-pyran-4-yl)methyl)-3-azabicyclo[3.1.0]hexan-6-yl)ethyl)-3-(pyridin-3-yl)acrylamide] belongs 0.01 to 0.49 µM; to `O=C(/C=C/c1cccnc1)NCC[C@@H]1[C@H]2CN(c3nc(-c4ncco4)ncc3F)C[C@@H]12` [Example 336, (E)-N-(2-((1R,5S,6s)-3-(5-fluoro-2-(oxazol-2-yl)pyrimidin-4-yl)-3-azabicyclo[3.1.0]hexan-6-yl)ethyl)-3-(pyridin-3-yl)acrylamide], below 0.01 µM.
Next, `O=C(/C=C/c1cccnc1)NCC[C@@H]1[C@H]2CN(c3cccc4[nH]ncc34)C[C@@H]12` [Example 337, (E)-N-(2-((1R,5S,6s)-3-(1H-indazol-4-yl)-3-azabicyclo[3.1.0]hexan-6-yl)ethyl)-3-(pyridin-3-yl)acrylamide]: 0.01 to 0.49 µM; `CCOP(=O)(OCC)c1cccc(N2C[C@@H]3[C@@H](CCNC(=O)/C=C/c4cccnc4)[C@@H]3C2)c1` [Example 338, diethyl (3-((1R,5S,6s)-6-(2-((E)-3-(pyridin-3-yl)acrylamido)ethyl)-3-azabicyclo[3.1.0]hexan-3-yl)phenyl)phosphonate]: 0.01 to 0.49 µM; `COc1cc(N2C[C@@H]3[C@@H](CCNC(=O)/C=C/c4ccc(N)nc4)[C@@H]3C2)ccn1` [Example 339, (E)-3-(6-aminopyridin-3-yl)-N-(2-((1R,5S,6s)-3-(2-methoxypyridin-4-yl)-3-azabicyclo[3.1.0]hexan-6-yl)ethyl)acrylamide]: 0.01 to 0.49 µM.
Consider `CC(c1ccc(F)cc1)N1C[C@@H]2[C@@H](CCNC(=O)/C=C/c3ccc(N)nc3)[C@@H]2C1` (stereo partly drawn) [Example 340, (E)-3-(6-aminopyridin-3-yl)-N-(2-((1R,5S,6s)-3-(1-(4-fluorophenyl)ethyl)-3-azabicyclo[3.1.0]hexan-6-yl)ethyl)acrylamide], for which the 50% inhibitory concentration (IC50) was in the range of 0.01 to 0.49 µM.
To `Nc1ccc(/C=C/C(=O)NCC[C@@H]2[C@H]3CN(c4ccc(F)cc4)C[C@@H]23)cn1` [Example 341, (E)-3-(6-aminopyridin-3-yl)-N-(2-((1R,5S,6s)-3-(4-fluorophenyl)-3-azabicyclo[3.1.0]hexan-6-yl)ethyl)acrylamide] belongs 0.01 to 0.49 µM; to `Cc1nc2nccc(N3C[C@@H]4[C@@H](CCNC(=O)/C=C/c5cccnc5)[C@@H]4C3)c2o1` [Example 342, (E)-N-(2-((1R,5S,6s)-3-(2-methyloxazolo[4,5-b]pyridin-7-yl)-3-azabicyclo[3.1.0]hexan-6-yl)ethyl)-3-(pyridin-3-yl)acrylamide], 0.01 to 0.49 µM.
